Source: patent US11691972B2, “Compounds for targeted degradation of BRD9” (C4 Therapeutics, Inc., priority 2020, dated 2023)

Columns and labels:
[1] = Plasma stability, mouse; assay type: in vitro ADME
[2] = Plasma stability, human; assay type: in vitro ADME
[3] = Hepatocyte stability, rat; assay type: in vitro ADME; conditions: rat hepatocytes; read-out: Hepatocyte stability, Clint scaled ws
[4] = Hepatocyte stability, human; assay type: in vitro ADME; conditions: human hepatocytes; read-out: Hepatocyte stability, Clint scaled ws
[5] = IV PK, mouse; assay type: in vivo; conditions: for IV PK AUC(0-last) / IV PK Cmax: dose-normalised; for clearance / Vd / half-life: in vivo; for clearance: read-out: IV PK CL; for Vd: read-out: IV PK Vdss; for half-life: read-out: IV PK t1/2 (converted)
[6] = tested on: Yamato (SS18-SSX fusion; BAF perturbed) cells; test: Confluence perturbation (IncuCyte S3) in Yamato cells; assay type: cell-based; conditions: 10 nM to 10^4 nM, single dose, 20-day period; FIG. 4, 16, 17; SW982 cells also tested
Method: FIG. 4, FIG. 16, and FIG. 17 are line graphs illustrating the confluence caused by Compound 172 and Compound 176 at various concentrations. The x-axis is time measured in days and the y axis is confluence measured as a percentage of control. The compounds were incubated at 10 nM, 32 nM, 100 nM, 316 nM, 1000 nM, and 10^4 nM concentrations at a single dose. The compounds were tested in a Yamato (SS18-SSX fusion; BAF perturbed) cells and SW982 (BAF wildtype) cells.
Compound 172 was serially diluted in DMSO and 200 nL were dispensed into 96 well tissue-culture treated plates by the Echo acoustic liquid handler. Yamato cells were counted and adjusted to 11,000 cells/mL with DMEM media supplemented with 10% heat-inactivated FBS. 200 ul of the cell suspension was dispensed into each well. The plate was sealed with a gas-permeable membrane and confluence was measured in a temperature- and humidity-controlled incubator (37° C., 5% CO2) over a 20-day period at 6-hour intervals by the IncuCyte S3. […]
Compound 176 and a comparator BRD9 inhibitor were serially diluted in DMSO and 200 nL were dispensed into 96 well tissue-culture treated plates by the Echo acoustic liquid handler. Yamato cells were counted and adjusted to 11,000 cells/mL with DMEM media supplemented with 10% heat-inactivated FBS. […]

[7] = biological target: T1, BRD9 (Homo sapiens, UniProt Q9H8M2); test: Western blot, in-vivo BRD9 degradation in Yamato-SS tumors; design: inoculated subcutaneously into BALB/c nude mice at the right flank for tumor development; from tissue; host or cells: Yamato-SS xenograft tumours in BALB/c nude mice; species or system BALB/c nude mice
T1 sequence (Q9H8M2 1-597): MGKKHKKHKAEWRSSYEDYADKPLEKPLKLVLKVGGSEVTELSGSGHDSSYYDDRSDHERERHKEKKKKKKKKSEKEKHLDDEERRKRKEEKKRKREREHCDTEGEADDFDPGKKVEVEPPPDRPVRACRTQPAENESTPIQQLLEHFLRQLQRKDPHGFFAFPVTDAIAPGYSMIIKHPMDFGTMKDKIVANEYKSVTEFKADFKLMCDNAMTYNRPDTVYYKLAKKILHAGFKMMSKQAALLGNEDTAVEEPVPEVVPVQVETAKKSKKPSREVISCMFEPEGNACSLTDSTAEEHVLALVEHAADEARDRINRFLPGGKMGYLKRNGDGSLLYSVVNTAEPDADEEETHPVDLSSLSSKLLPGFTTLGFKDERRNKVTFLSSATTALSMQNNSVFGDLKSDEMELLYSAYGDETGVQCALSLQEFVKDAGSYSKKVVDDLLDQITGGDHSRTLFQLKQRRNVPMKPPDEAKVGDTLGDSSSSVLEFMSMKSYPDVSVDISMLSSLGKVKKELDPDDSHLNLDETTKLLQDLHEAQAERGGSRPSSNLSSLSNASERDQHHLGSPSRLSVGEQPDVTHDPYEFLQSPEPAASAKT
Method: (§1) Yamato-SS cells were maintained in vitro until exponential growth phase and inoculated subcutaneously into BALB/c nude mice at the right flank for tumor development. Mice were treated with single dose of Compound 172 at 10 or 75 mg/kg PO. Tumor were collected at indicated time points and snap frozen until lysis. Tumors were ground and lysed in RIPA Buffer containing 2× protease/phosphatase inhibitor using a freeze grinder at 50 Hz for 5 minutes. Protein concentrations were determined by Pierce™ BCA Protein Assay Kit. Samples were diluted to appropriate concentrations and run in a western blot.
as §1, with “Yamato-SS” for “Yamato-SS cells”, “flank.” for “flank for tumor development.”, “176” for “172”, “3, 12” for “10”, “50” for “75”
FIG. 20 is a histogram reflecting quantitated bands from FIG. 19. The x axis is time measured in hours and the y axis is BRD9 remaining normalized to vehicle and vinculin measured in percentage.

COc1cc(-c2cn(C)c(=O)c(C)c2C)cc(OC)c1CN1CCC(N2CCN(c3ccc(NC4CCC(=O)NC4=O)cc3F)CC2)C(F)(F)C1 (single isomer, unassigned) [Compound 176, 3-[4-[4-[1-[[2,6-dimethoxy-4-(1,4,5-trimethyl-6-oxo-3-pyridyl)phenyl]methyl]-3,3-difluoro-4-piperidyl]piperazin-1-yl]-3-fluoro-anilino]piperidine-2,6-dione]
Stability (plasma) % remaining @3 hrs [1]: 85% | Stability (plasma) % remaining @3 hrs [2]: 67% | CLint scaled [3]: 14.2 mL/min/kg | CLint scaled [4]: 9.4 mL/min/kg | IV PK AUC(0-last) [5]: 2724 (h*ng/mL)/(mg/kg) | IV PK Cmax [5]: 720 [ng/mL]/(mg/kg) | clearance [5]: 6.2 mL/min/kg | Vd [5]: 2 L/kg | half-life [5]: 222 min | confluence as a percentage of control [6]: A dose response is clearly visible | in-vivo BRD9 degradation, western blot ([7]; single dose 3, 12 or 50 mg/kg PO, 1, 4, 12, 24, 48 hr, FIG. 19): time dependent in-vivo BRD9 degradation

COc1cc(-c2cn(C)c(=O)c(C)c2C)cc(OC)c1CN1CCC(N2CCN(c3ccc(NC4CCC(=O)NC4=O)cc3F)CC2)C(F)(F)C1 (stereo not shown) [Compound 172, 3-[4-[4-[1-[[2,6-dimethoxy-4-(1,4,5-trimethyl-6-oxo-3-pyridyl)phenyl]methyl]-3,3-difluoro-4-piperidyl]piperazin-1-yl]-3-fluoro-anilino]piperidine-2,6-dione]
Stability (plasma) % remaining @3 hrs [1]: 90.3% | Stability (plasma) % remaining @3 hrs [2]: 83.4% | CLint scaled [3]: 15 mL/min/kg | CLint scaled [4]: 9.4 mL/min/kg | IV PK AUC(0-last) [5]: 4942 (h*ng/mL)/(mg/kg) | IV PK Cmax [5]: 1228 [ng/mL]/(mg/kg) | clearance [5]: 3.4 mL/min/kg | Vd [5]: 1.1 L/kg | half-life [5]: 216 min | confluence as a percentage of control [6]: A dose response is clearly visible | in-vivo BRD9 degradation, western blot ([7]; single dose 10 or 75 mg/kg PO, FIG. 12, not BRD7): dose dependent in-vivo BRD9 degradation
